Source: PubChem BioAssay AID248 (DTP/NCI, 2004)
Where “and” joins values, the source holds several entries; their conditions need not be identical. Equal entries are not always repeated. Inconclusive results and toxic doses are left out. Rule as the data show it: active = T/C of 150% or more; inactive = T/C below 125%.

Test system: L1210 leukemia ip in BDF1 mice, survival T/C
Test: NCI In Vivo Anticancer Drug Screen. Data for tumor model L1210 Leukemia (intraperitoneal) in B6D2F1 (BDF1) mice
Details: endpoint: mean survival time, higher = longer survival
How it was run: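 Survival endpoint. Drug-treated group vs vehicle group, expressed as T divided by C. Tumor passaged by transplantation.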

[1] = dose: 25.0 mg/kg/injection, schedule: Q04DX003 (ip), vehicle: saline
[2] = dose: 50.0 mg/kg/injection, schedule: Q01DX009 (ip), vehicle: saline with Tween-80
[3] = dose: 100.0 mg/kg/injection, schedule: Q01DX009 (ip), vehicle: saline with Tween-80
[4] = dose: 100.0 mg/kg/injection, schedule: Q04DX003 (ip), vehicle: saline with Tween-80
[5] = dose: 200.0 mg/kg/injection, schedule: Q04DX003 (ip), vehicle: saline with Tween-80
[6] = dose: 25.0 mg/kg/injection, schedule: Q01DX009 (ip), vehicle: saline
[7] = dose: 50.0 mg/kg/injection, schedule: Q01DX009 (ip), vehicle: saline
[8] = dose: 100.0 mg/kg/injection, schedule: Q01DX009 (ip), vehicle: saline
[9] = dose: 100.0 mg/kg/injection, schedule: Q04DX003 (ip), vehicle: Klucel (hydroxypropylcellulose) (HPC)
[10] = dose: 100.0 mg/kg/injection, schedule: Q04DX003 (ip), vehicle: saline
[11] = dose: 100.0 mg/kg/injection, schedule: Q01DX001 (ip), vehicle: carboxymethylcellulose (CMC)
[12] = dose: 200.0 mg/kg/injection, schedule: Q01DX001 (ip), vehicle: carboxymethylcellulose (CMC)
[13] = dose: 400.0 mg/kg/injection, schedule: Q01DX001 (ip), vehicle: carboxymethylcellulose (CMC)
[14] = dose: 400.0 mg/kg/injection, schedule: Q04DX003 (ip), vehicle: saline with Tween-80
[15] = dose: 200.0 mg/kg/injection, schedule: Q04DX003 (ip), vehicle: Klucel (hydroxypropylcellulose) (HPC)
[16] = dose: 400.0 mg/kg/injection, schedule: Q04DX003 (ip), vehicle: Klucel (hydroxypropylcellulose) (HPC)
[17] = dose: 200.0 mg/kg/injection, schedule: Q04DX003 (ip), vehicle: saline
[18] = dose: 400.0 mg/kg/injection, schedule: Q04DX003 (ip), vehicle: saline

Measured: T/C

CC(CN(C)C)CN1c2ccccc2Sc2ccccc21 (stereo not given)
inactive: dose: 3.12 mg/kg/injection, schedule: Q04DX003 (ip), vehicle: saline with Tween-80 105 % of control | dose: 3.12 mg/kg/injection, schedule: Q04DX003 (ip), vehicle: saline 96 % of control | dose: 6.12 mg/kg/injection, schedule: Q04DX003 (ip), vehicle: saline with Tween-80 101 % of control | dose: 6.25 mg/kg/injection, schedule: Q04DX003 (ip), vehicle: saline 100 % of control and 104 % of control | dose: 12.5 mg/kg/injection, schedule: Q04DX003 (ip), vehicle: saline with Tween-80 105 % of control | dose: 12.5 mg/kg/injection, schedule: Q04DX003 (ip), vehicle: saline 102 % of control and 113 % of control | dose: 25.0 mg/kg/injection, schedule: Q04DX003 (ip), vehicle: saline with Tween-80 103 % of control | [1] 102 % of control | dose: 50.0 mg/kg/injection, schedule: Q04DX003 (ip), vehicle: saline with Tween-80 120 % of control

CSCCC(C)C
inactive: [2] 112 % of control | [3] 106 % of control | [4] 95 % of control | dose: 200.0 mg/kg/injection, schedule: Q01DX009 (ip), vehicle: saline with Tween-80 95 % of control | [5] 103 % of control

S=C(Cc1ccc2ccccc2c1)N1CCN(c2ccccc2)CC1
inactive: dose: 100.0 mg/kg/injection, schedule: Q01DX001 (ip), vehicle: olive oil, sesame oil, peanut oil 92 % of control | dose: 100.0 mg/kg/injection, schedule: Q04DX003 (sc), vehicle: olive oil, sesame oil, peanut oil 100 % of control | dose: 200.0 mg/kg/injection, schedule: Q01DX001 (ip), vehicle: olive oil, sesame oil, peanut oil 97 % of control | dose: 200.0 mg/kg/injection, schedule: Q04DX003 (sc), vehicle: olive oil, sesame oil, peanut oil 111 % of control | dose: 400.0 mg/kg/injection, schedule: Q01DX001 (ip), vehicle: olive oil, sesame oil, peanut oil 97 % of control | dose: 400.0 mg/kg/injection, schedule: Q04DX003 (sc), vehicle: olive oil, sesame oil, peanut oil 107 % of control

NS(=O)(=O)Cc1ccccc1
inactive: [6] 92 % of control | [7] 94 % of control | [8] 100 % of control

CC(N)Cc1ccc2c(c1)OCO2 (stereo not given)
inactive: dose: 6.0 mg/kg/injection, schedule: Q01DX009 (ip), vehicle: saline 104 % of control | dose: 6.25 mg/kg/injection, schedule: Q01DX009 (ip), vehicle: saline 103 % of control | dose: 12.0 mg/kg/injection, schedule: Q01DX009 (ip), vehicle: saline 98 % of control | dose: 12.5 mg/kg/injection, schedule: Q01DX009 (ip), vehicle: saline 93 % of control | [6] 106 % of control and 98 % of control and 102 % of control | [1] 103 % of control and 96 % of control | [7] 108 % of control | dose: 50.0 mg/kg/injection, schedule: Q04DX003 (ip), vehicle: saline 103 % of control and 97 % of control | [9] 93 % of control | [10] 110 % of control

O=C1/C(=N/O)CCCc2ccccc21
inactive: [11] 103 % of control | [12] 97 % of control | [13] 103 % of control

Cc1ccc(C(=O)Nc2c(N)ncnc2N)cc1[N+](=O)[O-]
inactive: dose: 75.0 mg/kg/injection, schedule: Q01DX001 (ip), vehicle: saline with Tween-80 101 % of control | dose: 150.0 mg/kg/injection, schedule: Q01DX001 (ip), vehicle: saline with Tween-80 98 % of control | dose: 300.0 mg/kg/injection, schedule: Q01DX001 (ip), vehicle: saline with Tween-80 102 % of control

Nc1nc(=O)n(CC(=O)c2cccs2)cc1F
inactive: dose: 25.0 mg/kg/injection, schedule: Q01DX009 (ip), vehicle: saline with Tween-80 96 % of control | [2] 98 % of control and 87 % of control | [3] 96 % of control and 98 % of control | [4] 97 % of control | [5] 103 % of control | [14] 97 % of control

CC(C)c1ccc(N=Nc2ccc(N(C)C)cc2)cc1
inactive: [4] 95 % of control | [5] 95 % of control | [14] 94 % of control

c1ccc2c(c1)CCC1NC21 (stereo not given)
inactive: [11] 103 % of control | [12] 105 % of control

CCCCNc1c(NCCCC)c(=O)c1=O
inactive: [9] 90 % of control | [15] 90 % of control | [16] 91 % of control

O=c1cc(COc2ccc(O)cc2)[nH]c(=O)[nH]1
inactive: [10] 101 % of control | [17] 104 % of control | [18] 89 % of control

CC(=O)Nc1cc(F)c2c(c1)Cc1cc(F)ccc1-2
inactive: dose: 50.0 mg/kg/injection, schedule: Q01DX001 (ip), vehicle: carboxymethylcellulose (CMC) 102 % of control | [11] 98 % of control | [12] 93 % of control | [13] 93 % of control

COCC(=O)CC(C)=O
inactive: dose: 100.0 mg/kg/injection, schedule: Q01DX009 (ip), vehicle: Klucel (hydroxypropylcellulose) (HPC) 98 % of control | [9] 100 % of control | dose: 200.0 mg/kg/injection, schedule: Q01DX009 (ip), vehicle: Klucel (hydroxypropylcellulose) (HPC) 106 % of control | [15] 95 % of control | dose: 400.0 mg/kg/injection, schedule: Q01DX009 (ip), vehicle: Klucel (hydroxypropylcellulose) (HPC) 101 % of control | [16] 101 % of control

C/C(=N/NC(=S)Nc1cc(I)ccc1C)c1cc(C)ccc1O
inactive: dose: 12.5 mg/kg/injection, schedule: Q04DX002 (ip), vehicle: Klucel (hydroxypropylcellulose) (HPC) 97 % of control | dose: 25.0 mg/kg/injection, schedule: Q04DX002 (ip), vehicle: Klucel (hydroxypropylcellulose) (HPC) 102 % of control | dose: 50.0 mg/kg/injection, schedule: Q04DX002 (ip), vehicle: Klucel (hydroxypropylcellulose) (HPC) 94 % of control

C1CN=C(C2=NCCCN2)NC1
inactive: [8] 107 % of control and 101 % of control | [10] 98 % of control | dose: 200.0 mg/kg/injection, schedule: Q01DX009 (ip), vehicle: saline 98 % of control and 101 % of control | [17] 98 % of control | dose: 400.0 mg/kg/injection, schedule: Q01DX009 (ip), vehicle: saline 92 % of control and 102 % of control | [18] 102 % of control
